Test results from patent US10463664B2, “Inhibitors of HSV nucleotidyl transferases and uses therefor” (Saint Louis University, priority 2013, dated 2019).
pEC50: −log10 of the molar value. “And” between values parts separate entries of the source, which are not always exact repeats. Equal values may be shown once. Read-outs that look alike come from different tables or passages of the source.

How the values were obtained:
HSV-1 [1] = experiment: Anti-HSV-1 replication assay in Vero cells, titer by plaque assay; format: cell-based, herpes simplex virus 1; conditions: for Anti-HSV-1 Log10 suppression 50 μM / pEC50 / Anti-HSV-1 Log10 suppression 5 μM: moi 0.1, 24 h; for Anti-HSV-1 Log10 suppression 50 μM / Anti-HSV-1 Log10 suppression 5 μM: relative to DMSO; for Control of HSV-1 replication after high moi infection: moi 5, 5 μM
Method in brief: (§1)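 Well lysates titered by plaque assay on Vero cells versus DMSO controls; EC50 by non-linear fit from serial dilutions starting at 50 μM.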

HSV-2 [2] = experiment: Anti-HSV-2 replication assay in Vero cells, titer by plaque assay; format: cell-based, herpes simplex virus 2; conditions: for Anti-HSV-2 Log10 suppression 50 μM / Anti-HSV-2 Log10 suppression 5 μM: relative to DMSO; for Control of HSV-2 replication after high moi infection: moi 5, 5 μM, 24 h
Method in brief: as §1

HBV RNaseH = target: T1, HBV RNaseH (Hepatitis B virus genotype A2 subtype adw2, UniProt P03159); experiment: Biochemical inhibition of HBV RNaseH (oligonucleotide-directed RNA cleavage assay); conditions: compounds at 60, 20 or 10 μM
T1 construct: One of the inventors recently produced active recombinant HBV RNase H; hexahistidine; made in house; host or cells: E. coli
T1 sequence (P03159 693-845): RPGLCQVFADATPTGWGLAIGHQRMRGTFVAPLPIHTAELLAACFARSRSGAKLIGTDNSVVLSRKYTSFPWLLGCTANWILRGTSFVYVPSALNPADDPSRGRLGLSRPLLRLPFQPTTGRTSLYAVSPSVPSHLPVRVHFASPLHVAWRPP
Method in brief: (§2)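 A DNA oligonucleotide was annealed to internally ^32P-labeled RNA, and the heteroduplex was incubated with enzyme alongside compounds at 60, 20 or 10 μM. Cleavage products were resolved by electrophoresis and detected by autoradiography, then quantified against DMSO vehicle reactions.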

human RNaseH1 = target: T2, human RNaseH1 (Homo sapiens, UniProt O60930); experiment: Biochemical inhibition of human RNaseH1 (oligonucleotide-directed RNA cleavage assay); conditions: for Anti-Human RNaseH1: compounds at 60, 20 or 10 μM
T2 construct: hexahistidine; made in house; host or cells: E. coli
T2 sequence (O60930 1-286): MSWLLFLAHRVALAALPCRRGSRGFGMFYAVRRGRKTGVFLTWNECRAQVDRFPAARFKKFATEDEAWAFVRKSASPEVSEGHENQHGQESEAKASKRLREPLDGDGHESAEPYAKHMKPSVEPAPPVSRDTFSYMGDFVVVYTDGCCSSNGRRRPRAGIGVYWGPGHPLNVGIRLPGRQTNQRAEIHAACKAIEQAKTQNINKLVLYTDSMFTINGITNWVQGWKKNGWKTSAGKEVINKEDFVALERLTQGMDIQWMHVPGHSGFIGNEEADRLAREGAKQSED
Method in brief: as §2

Vero cells = experiment: MTT mitochondrial toxicity assay in Vero cells; format: cell-based; conditions: 24 h; read-out: Vero cell toxicity MTT CC50
HSV-1 [3] = experiment: HSV-1 replication inhibition in primary human foreskin fibroblasts; format: cell-based, herpes simplex virus 1; conditions: HFF cells; for Replication inhibition HSV-1 5 μM / Replication inhibition HSV-1 50 μM: relative to DMSO-treated control
Experimental: (§3) Anti-HSV-1 and -HSV-2 Replication Assay. Compounds to be screened were diluted in PBS supplemented to contain 2% newborn calf serum and 1% glutamine, and added in 100 μL, volume to confluent cell monolayers in 24-well cluster plates. Immediately thereafter HSV-1 and HSV-2, diluted in the supplemented PBS medium, were added to the wells in 50 μl volume such that the final concentration of compound was 50 μM and 5 μM and the multiplicity of infection was 0.1. The plates were incubated at 37° C. for 1 hour and then virus-containing inoculum was removed and the wells were washed once in PBS. Compounds, diluted to 50 μM and 5 μM in DMEM supplemented to contain 2% newborn calf serum and 1% each penicillin/streptomycin, were added at 0.5 mL/well. Plates were incubated at 37° C. an additional 23 hr, and then the plates were visually inspected through a phase contrast microscope for cytopathic effect, and for toxic effect. […] The entire contents of each well were collected by scraping. Samples were frozen at −80° C., and then subsequently thawed, sonicated, and infectious virus titer was determined by standard plaque assay on Vero cell monolayers. Because the compounds were dissolved at 10 mM in 100% DMSO, equivalent dilutions of DMSO were added to additional wells as a control for effects of the diluent. Each experiment was repeated once. EC50 values were determined as above except that serial dilutions of the compound to be tested were prepared starting at 50 μM. The inhibitory values were calculated by non-linear curve-fitting in GraphPad Prism.
(§4) Inhibition of viral replication was next assessed in human foreskin fibroblasts (HFF) to determine whether NTS inhibitors could block HSV-1 and HSV-2 replication in a physiologically relevant, primary human cell type. […] Viral yields 24 hours post-infection were measured by plaque assay.

HSV-2 [4] = experiment: HSV-2 replication inhibition in primary human foreskin fibroblasts; format: cell-based, herpes simplex virus 2; conditions: for pEC50 / Replication inhibition HSV-2 5 μM / Replication inhibition HSV-2 50 μM: HFF cells; for Replication inhibition HSV-2 5 μM / Replication inhibition HSV-2 50 μM: relative to DMSO-treated control
Experimental: as §3, §4

HCMV strain AD169 = experiment: HCMV plaque reduction assay in HFFs; format: cell-based, human cytomegalovirus; conditions: 10 days, read-out: EC50 against HCMV, plaque reduction assay
Experimental: HCMV plaque reduction EC50 and toxicity assays. Low passage primary HFFs were infected with HCMV strain AD169 in the presence of serial dilutions of the compounds from 0.032 to 100 μM. Ten days later the monolayers were stained with 1% neutral red solution in PBS. After rinsing, plaques were counted using a stereomicroscope and the EC50 was interpolated from the data. Cytotoxicity was measured using a plate-based assay in which compounds were added to HFFs at 0.032 to 100 μM. At the end of the incubation period, plates were stained for 1 h with a neutral red solution in PBS. The stain was then removed, the plates rinsed in PBS and dried, and dye internalized by viable cells was determined at OD550. CC50 values were interpolated from the data.
Compounds #41, 46, 49, 55, 56, and 59 and the FDA-approved, anti-HCMV drug ganciclovir were subsequently evaluated with plaque reduction and toxicity assays in HFFs. HFFs were infected with HCMV in the presence of serial dilutions of the compounds. After 10 days the cultures were stained with neutral red and plaques were counted. Compound cytotoxicity for uninfected cells was determined in the same manner except that neutral red uptake by viable cells was measured by optical density. […] The TI values for the five NTS inhibitors of HCMV ranged from 5 for compound #46 to 17 for #55 and 59. Therefore, NTS inhibitors can suppress HCMV replication in addition to inhibiting the HSVs.

[5] = Human alphaherpesvirus 1, Vero, 24 h

SMILES	Anti-HSV-1 Log10 suppression 50 μM (HSV-1 [1]) [log10]	pEC50 (HSV-1 [1])	Control of HSV-1 replication after high moi infection (HSV-1 [1]; 24 h)	Anti-HSV-2 Log10 suppression 50 μM (HSV-2 [2]; moi 0.1, 24 h) [log10]	pEC50 (HSV-2 [2]; moi 0.1, 24 h)	Control of HSV-2 replication after high moi infection (HSV-2 [2])	Anti-HBV RNaseH (HBV RNaseH)	Anti-Human RNaseH1 (human RNaseH1)	CC50 (Vero cells) [nM]	pEC50 (HSV-1 [3])	Replication inhibition HSV-1 5 μM (HSV-1 [3]) [log10]	Replication inhibition HSV-1 50 μM (HSV-1 [3]) [log10]	pEC50 (HSV-2 [4])	Replication inhibition HSV-2 5 μM (HSV-2 [4]; 5 μM) [log10]	Replication inhibition HSV-2 50 μM (HSV-2 [4]) [log10]	pEC50 (HCMV strain AD169)	Anti-HSV-1 Log10 suppression 5 μM (HSV-1 [1]; 5 μM) [log10]	Anti-HSV-2 Log10 suppression 5 μM (HSV-2 [2]; 5 μM, moi 0.1, 24 h) [log10]	also measured
CC(C)c1ccc(O)c(=O)c(O)c1 [Compound 46, Beta-thujaplicinol]	4.81	5.71	efficiently controlled virus replication	5.12	5.77	efficiently controlled virus replication	+++ (inhibition at 10 μM)	+ (inhibition at 60 μM)	> 100000	6.01	5.83	6.39	6.42	5.17	5.83	5.89	–	–	–
Nc1nc2c(ncn2COCCO)c(=O)[nH]1 [ACV, Acyclovir, reference compound]	5.85	–	efficiently controlled virus replication	5.25	–	efficiently controlled virus replication	− (no inhibition at 60 μM)	− (no inhibition at 60 μM)	–	–	5.25	6.69	–	4.01	6.27	–	4.49	3.91	pEC50 (HSV-1 [1]; [5]): 6.68; pEC50 (HSV-1 [3]; Human alphaherpesvirus 1): 6.92; pEC50 (HSV-2 [4]; Human alphaherpesvirus 2): 6.92
CC(=O)NC(CCc1ccc(Cl)c(Cl)c1)c1cccc(O)c(=O)c1 (centres unmarked) [Compound 55]	5.04	6.38	efficiently controlled virus replication	5.06	5.97	efficiently controlled virus replication	+ (inhibition at 60 μM)	+ (inhibition at 60 μM)	> 100000	5.55	4.99	6.17	5.78	3.94	6.55	6.33	–	–	–
Cc1cc(C2CCCCC2)n(O)c(=O)c1 [Compound 41, Ciclopirox, reference compound]	5.23	–	–	5.25	–	–	− (no inhibition at 60 μM)	+ (inhibition at 60 μM)	–	–	5.06	5.57	–	5.21	4.97	–	–	–	pEC50 (HSV-1 [1]; [5]): 6.57; Inhibition of HSV-1 replication (in words) (HSV-1 [1]; primary screening): strong inhibitor; pEC50 (HSV-2 [2]; Human alphaherpesvirus 2, moi 0.1, 24 h): 6.35; Inhibition of HSV-2 replication (in words) (HSV-2 [2]; primary screening): strong inhibitor; pEC50 (HSV-1 [3]; Human alphaherpesvirus 1): 6.85; Suppression of HSV-2 replication, ciclopirox versus its salt (HSV-2 [4]; HFFs, various concentrations, 24 hours): equivalent extent; pEC50 (HSV-2 [4]; Human alphaherpesvirus 2): 6.00; pEC50 (HCMV strain AD169; Human betaherpesvirus 5, AD169, 240 h): 6.48
CC(C)=CCc1ccc(O)c(=O)cc1C(C)C [Compound 49, Nootkatin]	4.72	6.62	–	5.05	6.72 and 6.66	–	− (no inhibition at 60 μM)	− (no inhibition at 60 μM)	> 100000	6.13	5.79	6.27	5.91	5.47	5.98	6.35	–	–	–
CCOc1ccc(-c2c3cc(O)c(=O)cc-3oc3cc(O)c(O)cc23)cc1 [Compound 30]	4.02	5.23 and 5.38	–	4.55	5.41	–	+++ (inhibition at 10 μM)	+++ (inhibition at 10 μM)	> 100000	6.49	3.22	5.23	6.28	2.04	6.68	–	1.39	3.69	Fold more active against HSV-2 than HSV-1 (HSV-2 [2]; 5 μM): > 100 fold; Concentration giving inhibition of purified human RNaseH 1 (human RNaseH1): < 60 µM; Fold less effective inhibition of HSV-2 in HFF cells than in Vero cells (HSV-2 [4]; 5 μM): ~45 fold
C=C(C)C1CCc2c(c(C)cc(O)c(=O)c2O)C1 (centres unmarked) [Compound 56, Manicol]	5.82	6.46	–	5.79	6.24	–	+++ (inhibition at 10 μM)	− (no inhibition at 60 μM)	> 100000	6.62	5.72	6.39	6.26	5.93	6.80	5.58	5.14	5.95	HSV-1 replication inhibition, fold (HSV-1 [1]; 5 μM): 138,000 fold; HSV-2 replication inhibition, fold (HSV-2 [2]; 5 μM): 891,000 fold
